Data reported in patent publication US20260248819A1, “MULTI-COMPONENT PHARMACEUTICAL COMPOSITIONS AND KITS CONTAINING NITRIC OXIDE RELEASING COMPOUNDS AND METHODS OF USING SAME” (priority 2022, published 2026).

Experiments:
[1] = tested on: P. aeruginosa strain PAK (N0049); assay: Checkerboard assay, MD3 combined with a second antibiotic; format: cell-based, Pseudomonas aeruginosa; settings: for Lowest FICI, rep 1 / Lowest FICI, rep 2 / Lowest FICI, rep 3: antibiotic combined with MD3
Description: To quantify the combined effects of MD3 and a secondary antibiotic, a checkerboard assay was used, which is a two-dimensional, two-agent serial dilution that quantifies the effect of each drug alone and in combination. In patients with underlying pulmonary disease such as bronchiectasis, significant mucus in the lung results in bacterial infections that are primarily microaerobic (little oxygen) or anaerobic (no oxygen). Therefore, combinations of MD3 and six secondary antibiotics were evaluated under both aerobic and anaerobic conditions for a representative organism, Pseudomonas aeruginosa.
(§1) The checkerboard method was performed as follows. MD3 and the second antibiotic were tested at four times (4×) their minimum inhibitory concentration (MIC) alone (see Table 3). Stock solutions of MD3 and the secondary antibiotics were prepared at 4× the final concentration (i.e., 16× the MIC; called the 4× stocks).
MD3 and secondary antibiotics were tested at 4× their minimum inhibitory concentration (MIC) alone. […] MD3 and antibiotics were tested across a 7-point range of 2-fold concentration, as detailed in Table 3.
(§2) Bacterial cultures were prepared from frozen glycerol stocks stored at −80° C. by streaking on agar plates (see Table 4). Several well-isolated colonies were suspended in IX PBS, then diluted to 1×10^6 CFU/ml in liquid media. The cultures were diluted to 5×10^5 CFU/ml, when added to the antibiotic combinations in the checkerboard assay plate. Because colonies from strains N0010, N0046, and N0124 are difficult to suspend homogenously, they were first sub-cultured in 7H9 liquid media containing Middlebrook ADC supplement and 0.05% Tween-80, then incubated at 37° C. shaking for 3 days. This subculture was used to prepare the 1×10^6 CFU/ml culture.
(§3) To prepare the checkerboard assay plates, phosphate buffered saline (PBS) was added to wells BI through H8 of a 96-well plate. Next, 200 μl of the 4× second antibiotic stock was added to the empty wells in A1 through A8 of a 96-well plate, then serially diluted 1:1 down the plate using a multichannel pipette, stopping at row G. The final 100 μl from row G was discarded. […] At this step, all wells contain 4× the target concentration of the second antibiotic. Next, 100 μl of the 4× MD3 stock solution was added to wells A1 through H1 and serially diluted 1:1 across the plate to column 7 using a multichannel pipette. The final 100 μl in […] was discarded. […] After this step, all wells contain 2× the target concentrations for both MD3 and the second antibiotic. The wells in column 9 contain media alone, serving as media controls. The wells in column 10 contain media and bacteria, serving as growth controls. Finally, 100 μl of 5×10^5 CFU/ml bacterial culture was added to each well.
For experiments in which P. aeruginosa was grown under anaerobic conditions, 90 mM KNO3 was added to the CAMHB media, and the checkerboard assay plates were incubated in an anaerobic box containing anaerobic sachets.
(§4) The FICI was calculated for each well along the growth/no-growth border of the checkerboard assay plate. If the FICI of any well was greater than 4, antagonism was reported; otherwise, the lowest FICI value was reported. FICI values of ≤0.5 are considered synergistic, values of 0.51 to 1 are additive, and values of greater than 1 to 4 are indifferent. The rationale for this method of analysis is that, if any ratio of MD3:antibiotic is synergistic, then that combination has the potential for synergy, even if other ratios are not synergistic.

[2] = tested on: Aspergillus fumigatus (strain N0219); assay: Checkerboard assay, MD3 combined with a secondary antifungal; format: cell-based
From the text: (§5) To quantify the combined effects of MD3 and a secondary antifungal, a checkerboard assay was used as described above in Example 1. The antibiotics tested in this study included voriconazole, a triazole antifungal that inhibits the growth of the fungi causing the infection; itraconazole, an azole antifungal that inhibits the growth of fungi; and amphotericin B, a polyene antifungal that binds to ergosterol in fungal cell membranes, developing holes in the membrane and allowing cell components to leak out, causing cell death.
(§6) The fungal species used in this study included Aspergillus fumigatus (strain N0219) and Candida auris (Strain N0220). The checkerboard method was performed as described above in Example 1. The effects of the antifungal combinations were classified according to the fractional inhibitory concentration index (FICI) as described above in Example 1 at time points of 24 hours and 48 hours.

[3] = tested on: Candida auris (Strain N0220); assay: as above; format: cell-based; settings: for Interaction (at 24 hours) / Lowest FICI (at 24 hours) / Interaction (at 48 hours) / Lowest FICI (at 48 hours): antifungal combined with MD3
From the text: as §5, §6

[4] = tested on: P. aeruginosa biofilms; assay: Eradication of P. aeruginosa biofilms (MBEC assay); format: cell-based, Pseudomonas aeruginosa; settings: aerobic and anaerobic biofilms; treated 18-24 hours
Description: The minimum biofilm eradication concentration (MBEC) of MD3 was determined for P. aeruginosa biofilms grown under aerobic and anaerobic conditions. The MBEC is defined as a 3-log reduction in biofilm-associated CFUs. Biofilms were generated using the MBEC Assay™ growth device (Innovotech; Edmonton, Alberta, Canada) in cation-adjusted Mueller-Hinton broth (CAMHB) at 37° C. for 24 hours and treated with MD3 or tobramycin for an additional 18-24 hours. Remaining biofilms were disrupted by sonication and plated to determine the surviving CFU/mL following a single treatment.

[5] = tested on: S. aureus strain N0040; assay: Checkerboard assay, MD3 combined with a second antibiotic; format: cell-based, Staphylococcus aureus; settings: aerobic
Description: as §1, §2, §3
as §4, with “synergistic. […] If an experiment was repeated twice and the same classification observed (e.g., synergy observed in both replicates), then the average FICI was reported for that drug combination. If the results for two duplicates are discordant in their classification, a third experiment must be conducted and the average FICI from the triplicate experiments was used for final classification.” for “synergistic.”

[6] = tested on: planktonic P. aeruginosa; assay: Minimum inhibitory concentration (MIC) of an agent alone; format: cell-based; settings: Pseudomonas aeruginosa, strain PAK grown aerobically
Description: MD3 and secondary antibiotics were tested at 4× their minimum inhibitory concentration (MIC) alone. For example, the MICMD3 against P. aeruginosa strain PAK grown aerobically is 31.25 μg/ml, and the MICTOB is 3.125 μg/ml; thus, the highest concentrations tested in the checkerboard assay were 125 µg/ml MD3 and 12.5 μg/ml TOB. MD3 and antibiotics were tested across a 7-point range of 2-fold concentration, as detailed in Table 3.
as §3, with “Finally, 100 μl of 5×10^5 CFU/ml bacterial culture was added to each well.” left out

[7] = tested on: M. abscessus strain N0010; assay: Checkerboard assay, MD3 combined with a second antibiotic (NTM); format: cell-based, Mycobacterium abscessus; settings: aerobic
Description: as §1, §2
(§7) To prepare the checkerboard assay plates, phosphate buffered saline (PBS) was added to wells BI through H8 of a 96-well plate. […]
(§8) The FICI was calculated for each well along the growth/no-growth border of the checkerboard assay plate. […]

[8] = tested on: M. abscessus strain N0046; assay: as above; format: cell-based, Mycobacterium abscessus subsp. bolletii; settings: aerobic
Description: as §1, §2, §7, §8

[9] = tested on: M. chimaera N0124; assay: as above; format: cell-based, Mycobacterium chimaera; settings: strain N0124, aerobic
Description: as §1, §2, §7, §8

[10] = tested on: M. massiliense N0130; assay: as above; format: cell-based, Mycobacterium massiliense; settings: strain N0130, aerobic
Description: as §1, §2, §3
as §4, with “synergistic. […] If an experiment was repeated twice and the same classification observed (e.g., synergy observed in both replicates), then the average FICI was reported for that drug combination. […]” for “synergistic.”

[11] = 24 hours, antifungal combined with MD3
[12] = 48 hours, antifungal combined with MD3

Molecule: O=C(O)c1cn(C2CC2)c2cc(N3CCNCC3)c(F)cc2c1=O [CIP, Ciprofloxacin]
- Lowest FICI, rep 1 ([1]; Aerobic): 0.56
- Lowest FICI, rep 2 ([1]; Aerobic): 0.31
- Lowest FICI, rep 3 ([1]; Aerobic): 0.56
- Lowest FICI, rep 1 ([1]; Anaerobic): 0.56

Molecule: CC(C)(O/N=C(\C(=O)N[C@@H]1C(=O)N2C(C(=O)[O-])=C(C[n+]3ccccc3)CS[C@H]12)c1csc(N)n1)C(=O)O [CAZ, ceftazidime]
- Lowest FICI, rep 1 ([1]; Aerobic): 0.38
- Lowest FICI, rep 2 ([1]; Aerobic): 0.31
- Lowest FICI, rep 1 ([1]; Anaerobic): 0.50

Molecule: CCC(C)n1ncn(-c2ccc(N3CCN(c4ccc(OCC5COC(Cn6cncn6)(c6ccc(Cl)cc6Cl)O5)cc4)CC3)cc2)c1=O (stereo not shown) [Itraconazole, itraconazole]
- Lowest FICI (at 24 hours) [2, 11]: 0.625
- Lowest FICI (at 48 hours) [2, 12]: 0.5625

Molecule: C[C@@H](O)[C@H]1C(=O)N2C(C(=O)O)=C(S[C@@H]3CN[C@H](C(=O)N(C)C)C3)[C@H](C)[C@H]12 [MER, Meropenem]
- Lowest FICI, rep 1 ([1]; Aerobic): 0.53
- Lowest FICI, rep 2 ([1]; Aerobic): 0.56
- Lowest FICI, rep 1 ([1]; Anaerobic): 0.56

Molecule: C[C@@H](c1ncncc1F)[C@](O)(Cn1cncn1)c1ccc(F)cc1F [Voriconazole, voriconazole]
- Interaction (at 24 hours) [2, 11]: Additive
- Lowest FICI (at 24 hours) [2, 11]: 0.625
- Interaction (at 48 hours) [2, 12]: Additive
- Lowest FICI (at 48 hours) [2, 12]: 0.313
- Interaction of MD3 with the antifungal (summary) ([2]; time point not separated): at least additive
- Interaction (at 24 hours) [3]: Additive
- Lowest FICI (at 24 hours) [3]: 0.375
- Interaction (at 48 hours) [3]: Additive
- Lowest FICI (at 48 hours) [3]: 0.5625
- Interaction of MD3 with the antifungal (summary) ([3]; time point not separated): at least additive

Molecule: C[C@@H]1[C@H](O)[C@@H](C)/C=C/C=C/C=C/C=C/C=C/C=C/C=C/[C@H](O[C@@H]2O[C@H](C)[C@@H](O)[C@H](N)[C@@H]2O)C[C@@H]2O[C@](O)(C[C@@H](O)C[C@@H](O)[C@H](O)CC[C@@H](O)C[C@@H](O)CC(=O)O[C@H]1C)C[C@H](O)[C@H]2C(=O)O [Amphotericin B, amphotericin B]
- Interaction (at 24 hours) [3]: Additive
- Lowest FICI (at 24 hours) [3]: 0.625
- Interaction (at 48 hours) [3]: Additive
- Lowest FICI (at 48 hours) [3]: 0.5625

Molecule: NC[C@H]1O[C@H](O[C@H]2[C@H](O)[C@@H](O[C@H]3O[C@H](CO)[C@@H](O)[C@H](N)[C@H]3O)[C@H](N)C[C@@H]2N)[C@H](N)C[C@@H]1O [TOB, Tobramycin]
- Biofilm eradication (MBEC, 3-log reduction in biofilm-associated CFUs) [4]: only effective against aerobic biofilms
- Interaction of MD3 with the antibiotic (FICI classification) [5]: indifferent (values of greater than 1 to 4 are indifferent)
- Lowest FICI, rep 1 ([5]; combined with MD3): 1.03
- MIC [6]: 3.12 µg/mL
- Lowest FICI, rep 1 ([1]; Aerobic): 0.56
- Lowest FICI, rep 2 ([1]; Aerobic): 0.63
- Lowest FICI, rep 3 ([1]; Aerobic): 0.56
- Lowest FICI, rep 1 ([1]; Anaerobic): 0.56

Molecule: O=C([O-])CC(O)(CC(=O)[O-])C(=O)[O-].[Ga+3] [GaCi, Gallium citrate]
- Lowest FICI, rep 1 [7]: 0.56
- Interaction of MD3 with the antibiotic (FICI classification) [5]: synergistic (FICI values of ≤0.5 are considered synergistic)
- Lowest FICI, rep 1 ([5]; combined with MD3): 0.25
- Lowest FICI, rep 2 ([5]; combined with MD3): 0.19
- Lowest FICI, rep 1 ([1]; Aerobic): 0.38
- Lowest FICI, rep 2 ([1]; Aerobic): 0.38
- Lowest FICI, rep 3 ([1]; Aerobic): 0.25
- Lowest FICI, rep 1 [8]: 0.56

Molecule: Colistin [CST]
- Lowest FICI, rep 1 ([1]; Aerobic): 0.56
- Lowest FICI, rep 2 ([1]; Aerobic): 0.38
- Lowest FICI, rep 1 ([1]; Anaerobic): 0.56

Molecule: C[C@H]1[C@H](NC(=O)/C(=N\OC(C)(C)C(=O)O)c2csc(N)n2)C(=O)N1S(=O)(=O)O [ATM, Aztreonam]
- Lowest FICI, rep 1 ([1]; Aerobic): 0.31
- Lowest FICI, rep 2 ([1]; Aerobic): 0.31
- Lowest FICI, rep 1 ([1]; Anaerobic): 0.56

Molecule: Gentamicin
- Lowest FICI, rep 1 ([1]; Aerobic): 1.06
- Interaction of MD3 with the antibiotic (FICI classification) ([1]; aerobic conditions): indifferent (values of greater than 1 to 4 are indifferent)

Molecule: CC[C@H]1OC(=O)[C@H](C)[C@@H](O[C@H]2C[C@@](C)(OC)[C@@H](O)[C@H](C)O2)[C@H](C)[C@@H](O[C@@H]2O[C@H](C)C[C@H](N(C)C)[C@H]2O)[C@](C)(OC)C[C@@H](C)C(=O)[C@H](C)[C@@H](O)[C@]1(C)O [CLR, Clarithromycin]
- Lowest FICI, rep 1 [9]: 1.00
- Lowest FICI, rep 1 [10]: 0.56
- Lowest FICI, rep 2 [10]: 1.00

Molecule: NCC[C@H](O)C(=O)N[C@@H]1C[C@H](N)[C@@H](O[C@H]2O[C@H](CN)[C@@H](O)[C@H](O)[C@H]2O)[C@H](O)[C@H]1O[C@H]1O[C@H](CO)[C@@H](O)[C@H](N)[C@H]1O [AMK, Amikacin]
- Lowest FICI, rep 1 [7]: 0.56
- Lowest FICI, rep 1 [9]: 0.75
- Lowest FICI, rep 1 [10]: 0.56
- Lowest FICI, rep 2 [10]: 0.56
- Lowest FICI, rep 1 [8]: 0.56
